According to patent publication US8952035B2, “Combination of anti-angiogenic substance and anti-tumor platinum complex” (Eisai R&D Management Co., Ltd., priority 2008, dated 2015):

Columns and labels:
[1] = system: Human non-small-cell lung cancer cell line A549; assay: Combination use of E7080 and carboplatin in subcutaneous transplanted models (in vivo) of A549; set-up: species or system nude mouse; conditions: alone
Description: Human non-small-cell lung cancer cell line A549 (purchased from Dainippon Sumitomo Pharma Co., Ltd) was cultured in RPMI1640 (containing 10% FBS) in a 5% carbon dioxide gas incubator at 37° C. to about 80% confluence, and then the cells were collected with trypsin-EDTA. A 1×10^8 cells/mL suspension was prepared with a phosphate buffer, which was further added with matrigel matrix (purchased from Becton, Dickinson and Co.) to give a 5×10^7 cells/mL suspension, and each 0.2 mL of the resulting cell suspension was subcutaneously transplanted to a nude mouse at the side of its body. Eleven days after the transplantation, 4-(3-chloro-4-(cyclopropylaminocarbonyl)aminophenoxy)-7-methoxy-6-quinolinecarboxamide (E7080) was orally administered for 3 or 10 mg/kg, once a day for four weeks, while 100 mg/kg of carboplatin was administered into the tail vein on the first day. The major and minor axes of tumors were measured with Digimatic caliper (Mitsutoyo Corporation), and tumor volumes and relative tumor volumes were calculated according to the following formulae: Tumor Volume (TV)=Major axis of tumor(mm)×(Minor axis of tumor)^2(mm^2)/2 Relative Tumor Volume (RTV)=Tumor volume on measurement day/Tumor volume on the first administration day.
Tables 4 and 5 show anti-tumor effects obtained by the use of E7080 alone, the use of carboplatin alone and the combination use of E7080 and carboplatin in subcutaneous transplanted A549 models. The first day of administration was considered Day 1.

[2] = system: Human non-small-cell lung cancer cell line A549; assay: Combination use of E7080 and cisplatin in subcutaneous transplanted models (in vivo) of A549; set-up: species or system nude mouse; conditions: alone
Description: Human non-small-cell lung cancer cell line A549 (purchased from Dainippon Sumitomo Pharma Co., Ltd) was cultured in RPMI1640 (containing 10% FBS) in a 5% carbon dioxide gas incubator at 37° C. to about 80% confluence, and then the cells were collected with trypsin-EDTA. A 1×10^8 cells/mL suspension was prepared with a phosphate buffer, which was further added with matrigel matrix (purchased from Becton, Dickinson and Co.) to give a 5×10^7 cells/mL suspension, and each 0.2 mL of the resulting cell suspension was subcutaneously transplanted to a nude mouse at the side of its body. Eleven days after the transplantation, 4-(3-chloro-4-(cyclopropylaminocarbonyl)aminophenoxy)-7-methoxy-6-quinolinecarboxamide (hereinafter, also referred to as “[…]”) was orally administered for 3, 10 or 30 mg/kg, once a day for four weeks, while 10 mg/kg of cisplatin was administered into the tail vein once a day. The major and minor axes of tumors were measured with Digimatic caliper (Mitsutoyo Corporation), and tumor volumes and relative tumor volumes were calculated according to the following formulae: Tumor Volume (TV)=Major axis of tumor(mm)×(Minor axis of tumor)^2(mm^2)/2 Relative Tumor Volume (RTV)=Tumor volume on measurement day/Tumor volume on the first administration day. […] Tables 1, 2 and 3 show anti-tumor effects obtained by the use of […] alone, the use of cisplatin alone and the combination use of […] and cisplatin in subcutaneous transplanted A549 models. The first day of administration was considered Day 1.

[3] = E7080 3 mg/kg orally once a day for four weeks
[4] = E7080 10 mg/kg orally once a day for four weeks

N.N.O=C([O-])C1(C(=O)[O-])CCC1.[Pt+2] [Carboplatin, carboplatin, reference compound]
Relative tumor volume on Day 29 Average ± standard deviation ([1]; Carboplatin 100 mg/kg into the tail vein on the first day): 7.87 ± 1.05

N.N.[Cl][Pt][Cl] [Cisplatin, cisplatin, reference compound]
Relative tumor volume on Day 29 Average ± standard deviation ([2]; Cisplatin 10 mg/kg into the tail vein): 7.99 ± 0.88

COc1cc2nccc(Oc3ccc(NC(=O)NC4CC4)c(Cl)c3)c2cc1C(N)=O [E7080, 4-(3-chloro-4-(cyclopropylaminocarbonyl)aminophenoxy)-7-methoxy-6-quinolinecarboxamide]
Relative tumor volume on Day 29 Average ± standard deviation [2, 3]: 2.24 ± 0.34
Relative tumor volume on Day 29 Average ± standard deviation [2, 4]: 1.81 ± 0.29
Relative tumor volume on Day 29 Average ± standard deviation ([2]; E7080 30 mg/kg orally once a day for four weeks): 1.20 ± 0.21
Relative tumor volume on Day 29 Average ± standard deviation [1, 3]: 2.24 ± 0.34
Relative tumor volume on Day 29 Average ± standard deviation [1, 4]: 1.81 ± 0.29
